Legend:
Type in all cases: cell-based
[1] = tested on: E. coli DH5α; assay: Antibacterial activity: MIC and growth curve against E. coli DH5α in 96-well plate; settings: minimal inhibitory concentration against E. coli DH5α; 96-well plate, 5×10^5 CFU/mL, 37° C., judged after 8 h
How it was run: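 Log-phase bacteria (OD600 ~0.5) resuspended in LB at 5×10^5 CFU/mL, exposed to recombinant protein at 50, 25, 12.5 μg/mL final in triplicate, 37 °C shaking at 175 rpm. OD600 read every 30 min; MIC is lowest concentration showing no growth.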

[2] = tested on: E. coli BL21; assay: MIC against Gram-negative bacteria: E. coli BL21; settings: for MIC E. coli BL21 / MIC (μg/mL) E. coli BL21 / MIC against E. coli BL21: 5×10^5 CFU/mL; for MIC E. coli BL21: two-fold serial dilution
How it was run: (§1)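 Bacteria grown in LB at 37° C to McFarland 0.5, resuspended and seeded at 5×10^5 CFU/mL in 96-well plates. Purified human EGF-domain proteins two-fold serially diluted, triplicate wells; cultured at 37° C, shaking 175 rpm. MIC = lowest protein concentration with no growth.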

[3] = tested on: Pseudomonas aeruginosa; assay: MIC against Gram-negative bacteria: Pseudomonas aeruginosa; settings: for MIC P. aeruginosa / MIC (μg/mL) P. aeruginosa / MIC against P. aeruginosa: 5×10^5 CFU/mL; for MIC P. aeruginosa: two-fold serial dilution
How it was run: as §1

[4] = tested on: Klebsiella pneumonia; assay: MIC against Gram-negative bacteria: Klebsiella pneumonia; settings: for MIC K. pneumonia / MIC (μg/mL) K. pneumonia / MIC against K. pneumonia: 5×10^5 CFU/mL; for MIC K. pneumonia: two-fold serial dilution
How it was run: as §1

[5] = tested on: Enterobacter cloacae; assay: MIC against Gram-negative bacteria: Enterobacter cloacae; settings: for MIC E. cloacae / MIC (μg/mL) E. cloacae / MIC against E. cloacae: 5×10^5 CFU/mL; for MIC E. cloacae: two-fold serial dilution
How it was run: as §1

[6] = tested on: Aeromonas hydrophila; assay: MIC against Gram-negative bacteria: Aeromonas hydrophila; settings: for MIC A. hydrophila / MIC (μg/mL) A. hydrophila / MIC against A. hydrophila: 5×10^5 CFU/mL; for MIC A. hydrophila: two-fold serial dilution
How it was run: as §1

[7] = tested on: Citrobacter diversus; assay: MIC against Gram-negative bacteria: Citrobacter diversus; settings: for MIC C. diversus / MIC (μg/mL) C. diversus / MIC against C. diversus: 5×10^5 CFU/mL; for MIC C. diversus: two-fold serial dilution
How it was run: as §1

[8] = tested on: Moraxella catarrhalis; assay: MIC against Gram-negative bacteria: Moraxella catarrhalis; settings: for MIC M. catarrhalis / MIC (μg/mL) M. catarrhalis / MIC against M. catarrhalis: 5×10^5 CFU/mL; for MIC M. catarrhalis: two-fold serial dilution
How it was run: as §1

[9] = tested on: Proteus mirabilis; assay: MIC against Gram-negative bacteria: Proteus mirabilis; settings: for MIC P. mirabilis / MIC (μg/mL) P. mirabilis / MIC against P. mirabilis: 5×10^5 CFU/mL; for MIC P. mirabilis: two-fold serial dilution
How it was run: as §1

[10] = tested on: Proteus vulgaris; assay: MIC against Gram-negative bacteria: Proteus vulgaris; settings: for MIC P. vulgaris / MIC (μg/mL) P. vulgaris / MIC against P. vulgaris: 5×10^5 CFU/mL; for MIC P. vulgaris: two-fold serial dilution
How it was run: as §1

[11] = tested on: Serratia marcescens; assay: MIC against Gram-negative bacteria: Serratia marcescens; settings: for MIC S. marcescens / MIC (μg/mL) S. marcescens / MIC against S. marcescens: 5×10^5 CFU/mL; for MIC S. marcescens: two-fold serial dilution
How it was run: as §1

[12] = E. coli BL21, 10 h cultivation at 37° C.
[13] = P. aeruginosa, 10 h cultivation at 37° C.
[14] = K. pneumonia, 10 h cultivation at 37° C.
[15] = E. cloacae, 10 h cultivation at 37° C.
[16] = A. hydrophila, 10 h cultivation at 37° C.
[17] = C. diversus, 10 h cultivation at 37° C.
[18] = M. catarrhalis, 10 h cultivation at 37° C.
[19] = P. mirabilis, 10 h cultivation at 37° C.
[20] = P. vulgaris, 10 h cultivation at 37° C.
[21] = S. marcescens, 10 h cultivation at 37° C.
[22] = Pseudomonas aeruginosa, 10 h cultivation at 37° C.
[23] = Klebsiella pneumonia, 10 h cultivation at 37° C.
[24] = Enterobacter cloacae, 10 h cultivation at 37° C.
[25] = Aeromonas hydrophila, 10 h cultivation at 37° C.
[26] = Citrobacter diversus, 10 h cultivation at 37° C.
[27] = Moraxella catarrhalis, 10 h cultivation at 37° C.
[28] = Proteus mirabilis, 10 h cultivation at 37° C.
[29] = Proteus vulgaris, 10 h cultivation at 37° C.
[30] = Serratia marcescens, 10 h cultivation at 37° C.

PRT1075 (EVNKCSRCLEGACVVNKQSGDVTCNCTDGRVAPSCL; listed as Homo sapiens)
MIC [1]: 25 µg/mL
MIC E. coli BL21 ([2]; 10 h cultivation at 37° C.): 12.5 µg/mL
MIC P. aeruginosa ([3]; 10 h cultivation at 37° C.): 25 µg/mL
MIC K. pneumonia ([4]; 10 h cultivation at 37° C.): 50 µg/mL
MIC E. cloacae ([5]; 10 h cultivation at 37° C.): 25 µg/mL
MIC A. hydrophila ([6]; 10 h cultivation at 37° C.): 25 µg/mL
MIC C. diversus ([7]; 10 h cultivation at 37° C.): 50 µg/mL
MIC M. catarrhalis ([8]; 10 h cultivation at 37° C.): 25 µg/mL
MIC P. mirabilis ([9]; 10 h cultivation at 37° C.): 50 µg/mL
MIC P. vulgaris ([10]; 10 h cultivation at 37° C.): 12.5 µg/mL
MIC S. marcescens ([11]; 10 h cultivation at 37° C.): 50 µg/mL

PRT109 (ASQACRTNPCLHGGRCLEVEGHRLCHCPVGYTGAFCD; listed as Homo sapiens)
MIC [1]: 12.5 µg/mL
MIC (μg/mL) E. coli BL21 ([2]; E. coli BL21, 96-well plate, 37° C., 10 h): 12.5 µg/mL
MIC (μg/mL) P. aeruginosa ([3]; Pseudomonas aeruginosa, 96-well plate, 37° C., 10 h): 12.5 µg/mL
MIC (μg/mL) K. pneumonia ([4]; Klebsiella pneumonia, 96-well plate, 37° C., 10 h): 12.5 µg/mL
MIC (μg/mL) E. cloacae ([5]; Enterobacter cloacae, 96-well plate, 37° C., 10 h): 12.5 µg/mL
MIC (μg/mL) A. hydrophila ([6]; Aeromonas hydrophila, 96-well plate, 37° C., 10 h): 12.5 µg/mL
MIC (μg/mL) C. diversus ([7]; Citrobacter diversus, 96-well plate, 37° C., 10 h): 12.5 µg/mL
MIC (μg/mL) M. catarrhalis ([8]; Moraxella catarrhalis, 96-well plate, 37° C., 10 h): 25 µg/mL
MIC (μg/mL) P. mirabilis ([9]; Proteus mirabilis, 96-well plate, 37° C., 10 h): 12.5 µg/mL
MIC (μg/mL) P. vulgaris ([10]; Proteus vulgaris, 96-well plate, 37° C., 10 h): 25 µg/mL
MIC (μg/mL) S. marcescens ([11]; Serratia marcescens, 96-well plate, 37° C., 10 h): 50 µg/mL

PRT1103 (DHDECASSPCQNGAVCQDGIDGYSCFCVPGYQGRHCD; listed as Homo sapiens)
MIC [1]: 12.5 µg/mL
MIC E. coli BL21 ([2]; 10 h cultivation at 37° C.): 25 µg/mL
MIC P. aeruginosa ([3]; 10 h cultivation at 37° C.): 12.5 µg/mL
MIC K. pneumonia ([4]; 10 h cultivation at 37° C.): 25 µg/mL
MIC E. cloacae ([5]; 10 h cultivation at 37° C.): 50 µg/mL
MIC A. hydrophila ([6]; 10 h cultivation at 37° C.): 25 µg/mL
MIC C. diversus ([7]; 10 h cultivation at 37° C.): 12.5 µg/mL
MIC M. catarrhalis ([8]; 10 h cultivation at 37° C.): 25 µg/mL
MIC P. mirabilis ([9]; 10 h cultivation at 37° C.): 50 µg/mL
MIC P. vulgaris ([10]; 10 h cultivation at 37° C.): 25 µg/mL
MIC S. marcescens ([11]; 10 h cultivation at 37° C.): 12.5 µg/mL

PRT488 (DRCQLQTRCQNGGQWDGLKCQCPSTFYGSSCE; listed as Homo sapiens)
MIC [1]: 50 µg/mL
MIC against E. coli BL21 ([2]; 96-well plate, 37° C., 10 h): 12.5 µg/mL
MIC against P. aeruginosa ([3]; 96-well plate, 37° C., 10 h): 50 µg/mL
MIC against K. pneumonia ([4]; 96-well plate, 37° C., 10 h): 12.5 µg/mL
MIC against E. cloacae ([5]; 96-well plate, 37° C., 10 h): 50 µg/mL
MIC against A. hydrophila ([6]; 96-well plate, 37° C., 10 h): 12.5 µg/mL
MIC against C. diversus ([7]; 96-well plate, 37° C., 10 h): 50 µg/mL
MIC against M. catarrhalis ([8]; 96-well plate, 37° C., 10 h): 12.5 µg/mL
MIC against P. mirabilis ([9]; 96-well plate, 37° C., 10 h): 50 µg/mL
MIC against P. vulgaris ([10]; 96-well plate, 37° C., 10 h): 12.5 µg/mL
MIC against S. marcescens ([11]; 96-well plate, 37° C., 10 h): 50 µg/mL

PRT191 (PCLRKYKDFCIHGECKYVKELRAPSCICHPGYHGERCH; listed as Homo sapiens)
MIC [1]: 12.5 µg/mL
MIC (μg/mL) E. coli BL21 [2, 12]: 12.5 µg/mL
MIC (μg/mL) P. aeruginosa [3, 13]: 12.5 µg/mL
MIC (μg/mL) K. pneumonia [4, 14]: 12.5 µg/mL
MIC (μg/mL) E. cloacae [5, 15]: 25 µg/mL
MIC (μg/mL) A. hydrophila [6, 16]: 12.5 µg/mL
MIC (μg/mL) C. diversus [7, 17]: 25 µg/mL
MIC (μg/mL) M. catarrhalis [8, 18]: 12.5 µg/mL
MIC (μg/mL) P. mirabilis [9, 19]: 12.5 µg/mL
MIC (μg/mL) P. vulgaris [10, 20]: 50 µg/mL
MIC (μg/mL) S. marcescens [11, 21]: 12.5 µg/mL

PRT1464 (CNCDKTGTINGSLLCNKSTGQCPCKLGVTGLRCNQCEPHRYNLTIDNFQHCQM; listed as Homo sapiens)
MIC [1]: 12.5 µg/mL
MIC against E. coli BL21 [2, 12]: 25 µg/mL
MIC against P. aeruginosa [3, 22]: 12.5 µg/mL
MIC against K. pneumonia [4, 23]: 12.5 µg/mL
MIC against E. cloacae [5, 24]: 12.5 µg/mL
MIC against A. hydrophila [6, 25]: 12.5 µg/mL
MIC against C. diversus [7, 26]: 12.5 µg/mL
MIC against M. catarrhalis [8, 27]: 12.5 µg/mL
MIC against P. mirabilis [9, 28]: 12.5 µg/mL
MIC against P. vulgaris [10, 29]: 25 µg/mL
MIC against S. marcescens [11, 30]: 50 µg/mL

PRT1003 (STDYCVSAPCFNGGTCVNRPGTFSCLCAMGFQGPRCE; listed as Homo sapiens)
MIC [1]: 50 µg/mL
MIC [2, 12]: 12.5 µg/mL
MIC [3, 13]: 25 µg/mL
MIC [4, 14]: 50 µg/mL
MIC [5, 15]: 25 µg/mL
MIC [6, 16]: 25 µg/mL
MIC [7, 17]: 12.5 µg/mL
MIC [8, 18]: 25 µg/mL
MIC [9, 19]: 50 µg/mL
MIC [10, 20]: 25 µg/mL
MIC [11, 21]: 12.5 µg/mL

PRT1390 (EEDCLDPMCSNHGICVKGECHCSTGWGGVNCET; listed as Homo sapiens)
MIC [1]: 12.5 µg/mL
MIC against E. coli BL21 [2, 12]: 12.5 µg/mL
MIC against P. aeruginosa [3, 22]: 12.5 µg/mL
MIC against K. pneumonia [4, 23]: 50 µg/mL
MIC against E. cloacae [5, 24]: 12.5 µg/mL
MIC against A. hydrophila [6, 25]: 50 µg/mL
MIC against C. diversus [7, 26]: 25 µg/mL
MIC against M. catarrhalis [8, 27]: 50 µg/mL
MIC against P. mirabilis [9, 28]: 25 µg/mL
MIC against P. vulgaris [10, 29]: 50 µg/mL
MIC against S. marcescens [11, 30]: 50 µg/mL

PRT1089 (ANPCCSHPCQNRGVCMSVGFDQYKCDCTRTGFYGENCS; listed as Homo sapiens)
MIC [1]: 50 µg/mL
MIC E. coli BL21 ([2]; 10 h cultivation at 37° C.): 25 µg/mL
MIC P. aeruginosa ([3]; 10 h cultivation at 37° C.): 50 µg/mL
MIC K. pneumonia ([4]; 10 h cultivation at 37° C.): 25 µg/mL
MIC E. cloacae ([5]; 10 h cultivation at 37° C.): 12.5 µg/mL
MIC A. hydrophila ([6]; 10 h cultivation at 37° C.): 50 µg/mL
MIC C. diversus ([7]; 10 h cultivation at 37° C.): 25 µg/mL
MIC M. catarrhalis ([8]; 10 h cultivation at 37° C.): 12.5 µg/mL
MIC P. mirabilis ([9]; 10 h cultivation at 37° C.): 25 µg/mL
MIC P. vulgaris ([10]; 10 h cultivation at 37° C.): 50 µg/mL
MIC S. marcescens ([11]; 10 h cultivation at 37° C.): 25 µg/mL

PRT173 (CSSSPCSNGAKCVDLGDAYLCRCQAGFSGRHC; listed as Homo sapiens)
MIC [1]: 12.5 µg/mL
MIC (μg/mL) E. coli BL21 [2, 12]: 50 µg/mL
MIC (μg/mL) P. aeruginosa [3, 13]: 12.5 µg/mL
MIC (μg/mL) K. pneumonia [4, 14]: 50 µg/mL
MIC (μg/mL) E. cloacae [5, 15]: 25 µg/mL
MIC (μg/mL) A. hydrophila [6, 16]: 12.5 µg/mL
MIC (μg/mL) C. diversus [7, 17]: 25 µg/mL
MIC (μg/mL) M. catarrhalis [8, 18]: 50 µg/mL
MIC (μg/mL) P. mirabilis [9, 19]: 25 µg/mL
MIC (μg/mL) P. vulgaris [10, 20]: 12.5 µg/mL
MIC (μg/mL) S. marcescens [11, 21]: 25 µg/mL
